{
  "source": "ChEMBL document CHEMBL4765389",
  "about": "“Antimicrobial and anti-inflammatory activities of short dodecapeptides derived from duck cathelicidin: Plausible mechanism of bactericidal action and endotoxin neutralization” (Eur J Med Chem, 2020)",
  "key": {"[1]": {"test": "Therapeutic index, ratio of HC10 for sheep RBC to geometric mean MIC for gram negative bacteria", "assay_type": "toxicity", "details": "sheep red blood cells, read-out: TI"}, "[2]": {"system": "Cell membrane", "test": "Induction of cell membrane permeability in Staphylococcus aureus KCTC 1621 assessed as cytoplasmic membrane depolarization at 2 times MIC by DiSC3-5 dye based spectrofluorometry", "assay_type": "subcellular"}, "[3]": {"system": "Erythrocyte", "test": "Hemolytic activity in sheep RBC assessed as reduction in hemoglobin incubated for 1 hr", "assay_type": "ADME, cell-based, Ovis aries"}, "[4]": {"system": "Cell membrane", "test": "Induction of cell membrane permeability in Escherichia coli KCTC 1682 assessed as […] at 2 times MIC by ONPG dye based spectrophotometry", "assay_type": "subcellular"}, "[5]": {"system": "Bacteria", "test": "Antibacterial activity against Gram negative bacteria assessed as reduction in bacterial growth incubated for 24 hrs by CLSI based broth dilution method", "assay_type": "functional", "details": "read-out: MIC100"}, "[6]": {"system": "Enterococcus faecium", "test": "Antibacterial activity against vancomycin-resistant Enterococcus faecium ATCC 51559 assessed as reduction in bacterial growth incubated for 24 hrs by CLSI based broth dilution method", "assay_type": "functional", "details": "read-out: MIC100"}, "[7]": {"test": "Therapeutic index, ratio of HC10 for sheep RBC to geometric mean MIC for gram positive bacteria", "assay_type": "toxicity", "details": "sheep red blood cells, read-out: TI"}, "[8]": {"system": "Bacteria", "test": "Antibacterial activity against Gram positive bacteria assessed as reduction in bacterial growth incubated for 24 hrs by CLSI based broth dilution method", "assay_type": "functional", "details": "read-out: MIC100"}, "[9]": {"system": "Candida albicans", "test": "Antifungal activity against Candida albicans KCTC 7965 assessed as reduction in fungal growth incubated for 24 hrs by CLSI based broth dilution method", "assay_type": "functional", "details": "read-out: MIC100"}, "[10]": {"system": "Saccharomyces cerevisiae", "test": "Antifungal activity against yeast assessed as reduction in fungal growth incubated for 24 hrs by CLSI based broth dilution method", "assay_type": "functional", "details": "read-out: MIC100"}, "[11]": {"test": "Antibacterial activity against multidrug-resistant Pseudomonas aeruginosa CCARM 2109 assessed as reduction in bacterial growth incubated for 24 hrs by CLSI based broth dilution method", "assay_type": "functional", "details": "read-out: MIC100"}, "[12]": {"system": "Cell membrane", "test": "Induction of cell membrane permeability in Staphylococcus aureus KCTC 1621 assessed as cytoplasmic membrane depolarization at 2 times MIC by SYTOX dye based fluorescence assay", "assay_type": "subcellular"}, "[13]": {"system": "Cell membrane", "test": "Induction of cell membrane permeability in Escherichia coli KCTC 1682 assessed as cytoplasmic membrane […] fluorescent signals at 2 times MIC measured after 1 hr by propidium iodide dye based flow cytometry analysis (reference value: 9.8 %)", "assay_type": "subcellular"}, "[14]": {"system": "NIH3T3", "test": "Cytotoxicity against mouse NIH/3T3 cells assessed as reduction in cell viability at 1.25 to 80 uM incubated for 24 hrs by MTT assay", "assay_type": "cell-based", "details": "nih3t3, 24 h, dose 1.25-80 µM"}, "[15]": {"test": "Therapeutic index, ratio of HC10 for sheep RBC to geometric mean MIC for yeast", "assay_type": "toxicity", "details": "sheep red blood cells, read-out: TI"}, "[16]": {"test": "Antibacterial activity against multidrug-resistant Pseudomonas aeruginosa CCARM 2095 assessed as reduction in bacterial growth incubated for 24 hrs by CLSI based broth dilution method", "assay_type": "functional", "details": "read-out: MIC100"}, "[17]": {"system": "RAW264.7", "test": "Cytotoxicity against mouse RAW264.7 cells assessed as reduction in cell viability at 1.25 to 80 uM incubated for 24 hrs by MTT assay", "assay_type": "cell-based", "details": "raw264.7, 24 h, dose 1.25-80 µM"}, "[18]": {"test": "Cytotoxicity against mouse RAW264.7 cells assessed as reduction in cell viability at 20 uM incubated for 24 hrs by MTT assay", "assay_type": "cell-based", "details": "read-out: INH"}, "[19]": {"system": "Candida albicans", "test": "Antifungal activity against Candida albicans KCTC 7121 assessed as reduction in fungal growth incubated for 24 hrs by CLSI based broth dilution method", "assay_type": "functional", "details": "read-out: MIC100"}, "[20]": {"system": "NIH3T3", "test": "Cytotoxicity against mouse NIH/3T3 cells assessed as reduction in cell viability at 20 uM incubated for 24 hrs by MTT assay", "assay_type": "cell-based", "details": "nih3t3, 24 h, 20 µM"}},
  "note": "Calls of active or inactive are those of the source. The rule behind the calls is not given here.",
  "data": [
    {"compound": "CC[C@H](C)[C@H](NC(=O)CN)C(=O)NCC(=O)N[C@@H](C)C(=O)N[C@H](C(=O)N[C@@H](CC(C)C)C(=O)N[C@@H](CCCCN)C(=O)N[C@H](C(=O)N[C@@H](CC(C)C)C(=O)N[C@H](C(=O)N[C@H](C(=O)NCC(=O)N[C@@H](CC(C)C)C(=O)N1CCC[C@H]1C(=O)N[C@@H](C)C(=O)N[C@@H](CC(C)C)C(=O)N[C@H](C(=O)N[C@@H](CO)C(=O)N[C@@H](Cc1c[nH]c2ccccc12)C(=O)N[C@H](C(=O)N[C@@H](CCCCN)C(=O)N[C@@H](CCCNC(=N)N)C(=O)N[C@@H](CCCCN)C(=O)N[C@@H](CCCNC(=N)N)C(=O)N[C@@H](CCC(N)=O)C(=O)N[C@@H](CCC(N)=O)C(N)=O)[C@@H](C)CC)[C@@H](C)CC)[C@@H](C)O)[C@@H](C)O)C(C)C)C(C)C", "note": "[MELITTIN]", "values": [
      {"measurement": "selectivity ratio", "setting": "[1]", "result": 0.1},
      {"measurement": "Activity", "setting": "[2]", "result": "Active"},
      {"measurement": "HC10", "setting": "[3]", "result": 1, "unit": "µM"},
      {"measurement": "Activity", "setting": "[4]", "result": "Active"},
      {"measurement": "MIC", "setting": "[5]", "result": 17.2, "unit": "µM"},
      {"measurement": "MIC", "setting": "[6]", "result": 16, "unit": "µM"},
      {"measurement": "selectivity ratio", "setting": "[7]", "result": 0.1},
      {"measurement": "MIC", "setting": "[8]", "result": 16, "unit": "µM"},
      {"measurement": "MIC", "setting": "[9]", "result": 16, "unit": "µM"},
      {"measurement": "MIC", "setting": "[10]", "result": 16, "unit": "µM"},
      {"measurement": "MIC", "setting": "[11]", "result": 32, "unit": "µM"},
      {"measurement": "Activity", "setting": "[12]", "result": "Active"},
      {"measurement": "Activity", "setting": "[13]", "result": 71.9, "unit": "%"},
      {"measurement": "Activity", "setting": "[14]", "result": "Toxic"},
      {"measurement": "selectivity ratio", "setting": "[15]", "result": 0.1},
      {"measurement": "MIC", "setting": "[16]", "result": 32, "unit": "µM"},
      {"measurement": "Activity", "setting": "[17]", "result": "Toxic"},
      {"measurement": "cytotoxicity at 24 h, 20 µM", "setting": "[18]", "result": "< 10", "unit": "%"},
      {"measurement": "MIC", "setting": "[19]", "result": 16, "unit": "µM"},
      {"measurement": "Activity", "setting": "[20]", "result": "Toxic"}
    ]}
  ]
}
